Reference: patent US20220009894A1, “1,2,3,4-TETRAHYDROQUINOXALINE DERIVATIVE, PREPARATION METHOD THEREFOR AND APPLICATION THEREOF” (Abbisko Therapeutics Co., Ltd., priority 2019, published 2022)

Legend:
RORγt = target: T1, RORγt (Homo sapiens, UniProt P51449); assay: RORγt cellular reporter gene detection assay; assay type: cell-based; details: 24 hrs; for EC50: HEK 293 cells co-transfected with pFN26A-RORγt-LBD and pG14.35, in presence of antagonist Ursolic acid, top concentration 50 μM; for Cellular Reporter Assay Amax: upper activation limit, HEK 293 cells, in presence of antagonist Ursolic acid;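 as to Cellular Reporter Assay Amax: Ursolic Acid added as 5 µL of 20 µM medium per well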
T1 construct: The plasmid of pFN26A-RORγt-LBD and pG14.35 (Promega, Cat. No. E1370) were co-transfected into HEK 293 cells; expressed in transfected cells; host or cells: HEK 293 cells (Cat. No. GNHu18)
T1 sequence (P51449 269-508 limits assumed): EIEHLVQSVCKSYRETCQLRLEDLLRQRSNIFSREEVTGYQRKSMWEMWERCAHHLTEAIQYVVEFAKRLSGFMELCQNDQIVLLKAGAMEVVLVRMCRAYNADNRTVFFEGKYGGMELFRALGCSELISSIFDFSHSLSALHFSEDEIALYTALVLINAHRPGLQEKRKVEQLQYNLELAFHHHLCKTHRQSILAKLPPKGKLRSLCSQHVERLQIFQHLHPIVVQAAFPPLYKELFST
In short: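 HEK293 cells co-transfected with RORγt-LBD and luciferase reporter plasmids, treated with Ursolic acid antagonist plus compound in 4-fold dilutions from 50 μM for 24 h at 37° C. Firefly and Renilla luminescence read; EC50 and Amax from four-parameter fit.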

RORγt-LBD = target: T2, RORγt-LBD (Homo sapiens, UniProt P51449); assay: Time-resolved fluorescence resonance energy-transfer assay (TR-FRET), co-activator peptide recruitment; assay type: biochemical; set-up: TR-FRET Biochemical Amax: unit not given here; details: for EC50: His-RORγt-LBD 30 nM, SRC peptide 500 nM, agonistic activity, averages of one or more measurements, read-out: TR-FRET Biochemical EC50/; for TR-FRET Biochemical Amax: upper activation limit, His-RORγt-LBD, SRC peptide
T2 sequence (P51449 269-508 limits assumed): T1 sequence (P51449 269-508 limits assumed)
In short: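 Eu-anti-His-labelled His-RORγt-LBD (30 nM final) recruits biotin-SRC co-activator peptide (500 nM final), detected via APC-streptavidin (5 nM) and Eu-anti-His (0.25 nM). Buffer was Tris/KCl/EDTA at pH 7.0 with 0.01% Triton X-100 and 1 mM DTT. Compounds were tested at 7 points in 5-fold dilutions. Plates were incubated overnight at 4 °C then 1 h at RT, and agonism was read as the 665/615 nm ratio.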

| Structure (SMILES) | EC50 (RORγt) | Cellular Reporter Assay Amax (RORγt) | EC50 (RORγt-LBD) | TR-FRET Biochemical Amax (RORγt-LBD) |
| --- | --- | --- | --- | --- |
| CC(C)(C(=O)O)N1CCN2c3ccc(-c4cc(F)cc(OC(F)F)c4)cc3N(S(=O)(=O)c3cccc(C(F)(F)F)c3)C[C@@H]2C1 [Example 54, (S)-2-(8-(3-(difluoromethoxy)-5-fluorophenyl)-6-((3-(trifluoromethyl)phenyl)sulfonyl)-1,2,4,4a,5,6-hexahydro-3H-pyrazino[1,2-a]quinoxalin-3-yl)-2-methylpropanoic acid] | 297 nM | 3.9 | 20.1 nM | 0.72 |
| CC(C)(C(=O)O)N1CCN2c3ccc(/C=C/c4c(Cl)cccc4C(F)(F)F)cc3N(S(=O)(=O)c3cccc(C(F)(F)F)c3)C[C@@H]2C1 [Example 55, (S,E)-2-(8-(2-chloro-6-(trifluoro-methyl)styryl)-6-((3-(trifluoro-methyl)phenyl)sulfonyl)-1,2,4,4a,5,6-hexahydro-3H-pyrazino [1,2-a]quinoxalin-3-yl)-2-methylpropanoic acid] | 508 nM | 2.7 | 46.6 nM | 0.78 |
| C/C(=C\c1ccc2c(c1)N(S(=O)(=O)c1cccc(C(F)(F)F)c1)C[C@@H]1CN(C(C)(C)C(=O)O)CCN21)c1c(F)cccc1Cl [Example 56, (S,E)-2-(8-(2-(2-chloro-6-fluoro-phenyl)prop-1-en-1-yl)-6-((3-(trifluoromethyl)phenyl)sulfo-nyl)-1,2,4,4a,5,6-hexahydro-3H-pyrazino[1,2-a]quinoxalin-3-yl)-2-methylpropanoic acid] | 622 nM | 3.2 | 44.5 nM | 0.71 |
| CCOC(=O)C(=O)N1CCN2c3ccc(/C=C(\C)c4c(F)cccc4Cl)cc3N(S(=O)(=O)c3cccc(C(F)(F)F)c3)C[C@@H]2C1 [Example 57, ethyl (S,E)-2-(8-(2-(2-chloro-6-fluorophenyl)prop-1-en-1-yl)-6-((3-(trifluoromethyl)phenyl)sulfonyl)-1,2,4,4a,5,6-hexahydro-3H-pyrazino[1,2-a]quinoxalin-3-yl)-2-oxoacetate] | 304 nM | 3.2 | 6.54 nM | 0.89 |
| CCOC(=O)C(=O)N1CCN2c3ccc(/C=C/c4c(Cl)cccc4C(F)(F)F)cc3N(S(=O)(=O)c3cccc(C(F)(F)F)c3)C[C@@H]2C1 [Example 58, ethyl (S,E)-2-(8-(2-chloro-6-(trifluoromethyl)styryl)-6-((3-(trifluoromethyl)phenyl)sulfonyl)-1,2,4,4a,5,6-hexahydro-3H-pyrazino[1,2-a]quinoxalin-3-yl)-2-oxoacetate] | 1400 nM | 4.0 | 19.4 nM | 0.79 |
| NC(=O)CN1CCN2c3ccc(/C=C/c4c(Cl)cccc4C(F)(F)F)cc3N(S(=O)(=O)c3cccc(C(F)(F)F)c3)C[C@@H]2C1 [Example 59, (S,E)-2-(8-(2-chloro-6-(trifluoromethyl)styryl)-6-((3-(trifluoromethyl)phenyl)sulfonyl)-1,2,4,4a,5,6-hexahydro-3H-pyrazino[1,2-a]quinoxalin-3-yl)acetamide] | 602 nM | 3.5 | 100 nM | 1.10 |
| NC(=O)N1CCN2c3ccc(/C=C/c4c(Cl)cccc4C(F)(F)F)cc3N(S(=O)(=O)c3cccc(C(F)(F)F)c3)C[C@@H]2C1 [Example 60, (S,E)-8-(2-chloro-6-(trifluoromethyl)styryl)-6-((3-(trifluoromethyl)phenyl)sulfonyl)-1,2,4,4a,5,6-hexahydro-3H-pyrazino[1,2-a]quinoxalin-3-carboxamide] | 249 nM | 2.8 | 61.4 nM | 0.98 |
| NC(=O)N1CCN2c3ccc(-c4cc(F)cc(OC(F)F)c4)cc3N(S(=O)(=O)c3cccc(C(F)(F)F)c3)C[C@@H]2C1 [Example 61, (S)-8-(3-(difluoromethoxy)-5-fluorophenyl)-6-((3-(trifluoro-methyl)phenyl)sulfonyl)-1,2,4,4a,5,6-hexahydro-3H-pyra-zino[1,2-a]quinoxaline-3-car-boxamide] | 469 nM | 3.0 | 86 nM | 0.69 |
| C/C(=C\c1ccc2c(c1)N(S(=O)(=O)c1cccc(C(F)(F)F)c1)C[C@@H]1CN(C(N)=O)CCN21)c1c(F)cccc1Cl [Example 62, (S,E)-8-(2-(2-chloro-6-fluoro-phenyl)prop-1-en-1-yl)-6-((3-(trifluoromethyl)phenyl)sulfo-nyl)-1,2,4,4a,5,6-hexahydro-3H-pyrazino[1,2-a]quinoxa-line-3-carboxamide] | 297 nM | 3.8 | 25.2 nM | 0.69 |
| C/C(=C\c1ccc2c(c1)N(S(=O)(=O)c1cccc(C(F)(F)F)c1)C[C@@H]1CN(C(N)=S)CCN21)c1c(F)cccc1Cl [Example 63, (S,E)-8-(2-(2-chloro-6-fluorophenyl)prop-1-en-1-yl)-6-((3-(trifluoromethyl)phenyl)sulfonyl)-1,2,4,4a,5,6-hexahydro-3H-pyrazino[1,2-a]quinoxaline-3-carbothioamide] | 308 nM | 5.0 | 23.5 nM | 0.89 |
| NC(=S)N1CCN2c3ccc(-c4cc(F)cc(OC(F)F)c4)cc3N(S(=O)(=O)c3cccc(C(F)(F)F)c3)C[C@@H]2C1 [Example 64, (S)-8-(3-(difluoromethoxy)-5-fluorophenyl)-6-((3-(trifluoro-methyl)phenyl)sulfonyl)-1,2,4,4a,5,6-hexahydro-3H-pyrazino [1,2-a]quinoxaline-3-carbo-thioamide] | 563 nM | 2.7 | 47.8 nM | 0.80 |
| NC(=S)N1CCN2c3ccc(/C=C/c4c(Cl)cccc4C(F)(F)F)cc3N(S(=O)(=O)c3cccc(C(F)(F)F)c3)C[C@@H]2C1 [Example 65, (S,E)-8-(2-chloro-6-(trifluoro-methyl)styryl)-6-((3-(trifluoro-methyl)phenyl)sulfonyl)-1,2,4,4a,5,6-hexahydro-3H-pyrazino [1,2-a]quinoxaline-3-carbothio-amide] | 391 nM | 2.8 | 8.4 nM | 0.89 |
| C/C(=C\c1ccc2c(c1)N(S(=O)(=O)c1cccc(C(F)(F)F)c1)C[C@@H]1CN(S(N)(=O)=O)CCN21)c1c(F)cccc1Cl [Example 66, (R,E)-8-(2-(2-chloro-6-fluorophenyl)prop-1-en-1-yl)-6-((3-(trifluoromethyl)phenyl)sulfonyl)-1,2,4,4a,5,6-hexahydro-3H-pyrazino[1,2-a]quinoxaline-3-sulfonamide] | 523 nM | 5.6 | 33.6 nM | 0.99 |
| NS(=O)(=O)N1CCN2c3ccc(-c4cc(F)cc(OC(F)F)c4)cc3N(S(=O)(=O)c3cccc(C(F)(F)F)c3)C[C@@H]2C1 [Example 67, (R)-8-(3-(difluoromethoxy)-5-fluoro-phenyl)-6-((3-(trifluorometh-yl)phenyl)sulfonyl)-1,2,4,4a,5,6-hexahydro-3H-pyrazino[1,2-a]quinoxaline-3-sulfonamide] | 158 nM | 3.3 | 19.7 nM | 0.87 |
| NS(=O)(=O)N1CCN2c3ccc(/C=C/c4c(Cl)cccc4C(F)(F)F)cc3N(S(=O)(=O)c3cccc(C(F)(F)F)c3)C[C@@H]2C1 [Example 68, (R,E)-8-(2-chloro-6-(trifluorometh-yl)styryl)-6-((3-(trifluorometh-yl)phenyl)sulfonyl)-1,2,4,4a,5,6-hexahydro-3H-pyrazino[1,2-a]quinoxaline-3-sulfonamide] | 151 nM | 2.5 | 30.5 nM | 1.03 |
| C/C(=C\c1ccc2c(c1)N(S(=O)(=O)c1cccc(C(F)(F)F)c1)C[C@@H]1CN(C(CO)CO)CCN21)c1c(F)cccc1Cl [Example 69, (S,E)-2-(8-(2-(2-chloro-6-fluorophenyl)prop-1-en-1-yl)-6-((3-(trifluoromethyl)phenyl)sulfonyl)-1,2,4,4a,5,6-hexahydro-3H-pyrazino[1,2-a]quinoxalin-3-yl)propane-1,3-diol] | 600 nM | 5.8 | 44.4 nM | 1.05 |
